In patent US9540359B2, “Dihydrooxazine or oxazepine derivatives having BACE1 inhibitory activity” (Shionogi & Co., Ltd., priority 2012, dated 2017):
Where two headings read alike, the source gives them in different places.

Legend:
[1] = molecular target: Recombinant human BACE1 (Homo sapiens (Human), UniProt P56817); assay: Assay of BACE1 inhibiting activity (HTRF, substrate peptide cleavage); format: biochemical; conditions: 30° C., 3.5 hours, pH 5.0
Protocol: 48.5 μL of substrate peptide solution (Biotin-[…]-Eu: X=ε-amino-n-capronic acid, Eu=Europium cryptate) was added to each well of 96-hole half-area plate (a black plate: Costar), and after addition of 0.5 μl of the compound of the present invention (DMSO solution) and 1 μl of Recombinant human BACE1 (R&D Systems), the reaction mixture was incubated at 30° C. for 3.5 hours. […] The final concentrations of the substrate peptide and Recombinant human BACE1 were adjusted to 18 nmol/L and 7.4 nmol/L, respectively, and the reaction was performed in sodium acetate buffer (50 mmol/L sodium acetate, pH 5.0, 0.008% Triton X-100). After the incubation for reaction, 50 μl of 8.0 μg/ml Streptavidin-XL665 (CIS bio international) dissolved in phosphate buffer (150 mmol/L K2HPO4-KH2PO4, pH 7.0, 0.008% Triton X-100, 0.8 mol/L KF) was added to each well and left stand at 30° C. for 45 minutes. After then, fluorescence intensity was measured (excitation wavelength: 320 nm, measuring wavelength: 620 nm and 665 nm) using Wallac 1420 multilabel counter (Perkin Elmer life sciences). Enzymatic activity was determined from counting ratio of each wavelength (10,000× Count 665/Count 620) and 50% inhibitory concentration against the enzymatic activity (IC50) was calculated.

[2] = test system: β-Amyloid (Aβ) production in neuroblastoma SH-SY5Y cells (SH/APPwt); assay: Measurement of β-amyloid (Aβ) production inhibitory effect in cell; format: cell-based; conditions: Homo sapiens, amount needed to inhibit Aβ production by 50%, Amyloid β1-40 in culture supernatant, 24 hours
Protocol: Neuroblastoma SH-SY5Y cells (SH/APPwt) with human wild-type β-APP excessively expressed therein were prepared at 8×10^5 cells/mL, and 150 μl portions thereof were inoculated into each well of a 96-well culture plate (Falcon). The cells were cultured for 2 hours at 37° C. in a 5% gaseous carbon dioxide incubator. Then, a solution which have been preliminarily prepared by adding and suspending the compound of the present invention (DMSO (dimethyl sulfoxide) solution) so as to be 2 μl/50 μl medium was added to the cell sap. Namely, the final DMSO concentration was 1%, and the amount of the cell culture was 200 μl. After the incubation was performed for 24 hours from the addition of the test compound, 100 μl of the culture supernatant was collected from each fraction. The amount of the Aβ in each fraction was measured. The Aβ amount was measured as follows. 10 μl of a homogeneous time resolved fluorescence (HTRF) measurement reagent (Amyloid β1-40 peptide; CIS bio international) and 10 μl of the culture supernatant were put into a 384-well half area microplate (black microplate, Costar) and mixed with each other, and then left standing overnight at 4° C. while the light was shielded. Then, the fluorescence intensity (excitation wavelength: 337 nm, measurement wavelength: 620 nm and 665 nm) was measured with a micro plate reader (Artemis K-101; FURUNO […]). […]

[3] = bound stated for a list of compounds, read-out: IC50 values
[4] = 50% inhibitory concentration against enzymatic activity, read-out: IC50 value

Recombinant human BACE1, sequence (P56817 46-501): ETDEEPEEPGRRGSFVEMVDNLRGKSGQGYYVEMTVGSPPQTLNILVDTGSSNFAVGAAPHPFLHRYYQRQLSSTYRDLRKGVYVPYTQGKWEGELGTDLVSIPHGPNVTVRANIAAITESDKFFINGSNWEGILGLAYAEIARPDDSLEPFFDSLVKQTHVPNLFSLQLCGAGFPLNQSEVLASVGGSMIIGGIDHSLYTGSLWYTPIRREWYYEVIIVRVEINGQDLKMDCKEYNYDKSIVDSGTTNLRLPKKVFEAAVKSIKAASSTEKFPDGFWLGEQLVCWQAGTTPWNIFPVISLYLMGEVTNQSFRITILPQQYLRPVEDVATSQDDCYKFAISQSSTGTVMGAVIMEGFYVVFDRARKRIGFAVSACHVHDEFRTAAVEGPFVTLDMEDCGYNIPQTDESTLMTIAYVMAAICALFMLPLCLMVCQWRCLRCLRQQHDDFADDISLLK

Compound | IC50 [1, 3] [nM] | IC50 [1, 4] [nM] | other results
CO[C@H]1[C@@H](C(F)F)OC(N)=N[C@]1(C)c1cc(NC(=O)c2ccc(C#N)cn2)ccc1F [Compound I-116] | ≤ 1000 |  | 
C#C[C@]1(c2cc(NC(=O)c3coc(C(F)F)n3)ccc2F)N=C(N)O[C@@H]2COC[C@@H]21 [Compound I-73] | ≤ 1000 |  | 
NC1=N[C@@](c2cc(NC(=O)c3cnc(OCF)cn3)ccc2F)(C(F)F)CCCO1 [Compound I-47] | ≤ 1000 |  | 
CC1(C)C[C@@](C)(c2cc(NC(=O)c3ccc(C#N)cn3)ccc2F)N=C(N)O1 [Compound I-1] |  | 94.2 | 
CO[C@H]1[C@@H](C(F)F)OC(N)=N[C@]1(C)c1cc(NC(=O)c2cnc(OCF)cn2)ccc1F [Compound I-118] | ≤ 1000 |  | 
C[C@]1(c2cc(NC(=O)c3ccc(C#N)cn3)ccc2F)N=C(N)OC2(COC2)[C@@H]1F [Compound I-95] |  | 20.7 | 
N#Cc1ccc(C(=O)Nc2ccc(F)c([C@]34CCO[C@H]3[C@@H](CF)OC(N)=N4)c2)nc1 [Compound I-110] | ≤ 1000 |  | 
CO[C@H]1[C@@H](C(F)F)OC(N)=N[C@]1(C)c1cc(NC(=O)c2ccc(F)cn2)ccc1F [Compound I-119] | ≤ 1000 |  | 
C#C[C@]1(c2cc(NC(=O)c3ccc(C#N)cn3)ccc2F)N=C(N)O[C@@H]2C[C@@H]21 [Compound I-21] |  | 65.4 | 
C#C[C@@]1(c2cc(NC(=O)c3ccc(C#N)cn3)ccc2F)CCOC(N)=N1 [Compound I-14] |  | 96.8 | 
N#Cc1ccc(C(=O)Nc2ccc(F)c([C@]3(C(F)(F)F)CCOC(N)=N3)c2)nc1 [Compound I-38] |  |  | IC50 [2]: 509 nM
NC1=N[C@@]2(c3cc(NC(=O)c4cnc(OCF)cn4)ccc3F)CCO[C@H]2[C@@H](CF)O1 [Compound I-111] | ≤ 1000 |  | 
C[C@@]1(c2cc(NC(=O)c3ccc(C#N)cn3)ccc2F)CCCOC(N)=N1 [Compound I-13] |  | 153 | 
Cc1cc(C#N)cnc1C(=O)Nc1ccc(F)c([C@@]2(C)N=C(N)O[C@H](CF)[C@@H]2F)c1 [Compound I-26] | ≤ 1000 |  | 
C[C@@]1(c2cc(NC(=O)c3ccc(C#N)cn3)ccc2F)CC2(COC2)OC(N)=N1 [Compound I-56] |  | 25 | 
CC12OC(N)=N[C@](CF)(c3cc(NC(=O)c4ccc(C#N)cn4)ccc3F)C1O2 (some centres unmarked) [Compound I-2] |  | 77.3 | 
Cc1cc(C#N)cnc1C(=O)Nc1ccc(F)c([C@]2(C(F)F)CCOC(N)=N2)c1 [Compound I-4] |  | 90.2 | 
C[C@H]1OC(N)=N[C@](CF)(c2cc(NC(=O)c3ccc(C#N)cn3)ccc2F)[C@H]1CF [Compound I-100] |  | 113 | 
C[C@]1(c2cc(NC(=O)c3coc(C(F)F)n3)ccc2F)N=C(N)O[C@H](CF)[C@@H]1F [Compound I-86] |  | 32.9 | 
C[C@]1(c2cc(NC(=O)c3coc(CF)n3)ccc2F)N=C(N)O[C@H](CF)[C@@H]1F [Compound I-85] | ≤ 1000 |  | 
N#Cc1ccc(C(=O)Nc2ccc(F)c([C@]34CCO[C@H]3COC(N)=N4)c2)nc1 [Compound I-108] | ≤ 1000 |  | 
COC[C@@H]1C[C@@](CF)(c2cc(NC(=O)c3ccc(C#N)cn3)ccc2F)N=C(N)O1 [Compound I-37] | ≤ 1000 |  | 
C#C[C@]1(c2cc(NC(=O)c3cnc(OCF)cn3)ccc2F)N=C(N)O[C@@H]2COC[C@@H]21 [Compound I-72] |  | 13.6 | 
